{
  "source": "ChEMBL document CHEMBL1201862",
  "about": "“PubChem BioAssay data set” (2004)",
  "key": {"[1]": {"experiment": "cytotoxicity in MIN6 insulinoma cells, dose response, cytotoxicity control, cell-based, mouse insulinoma (AID 2122);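 also: confirmatory high-throughput counterscreen run to flag cytotoxic compounds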", "format": "functional"}, "[2]": {"experiment": "insulin promoter down-regulators in MIN6 cells, imaging, high-content screening, mouse beta cells (AID 1628)", "format": "functional"}, "Beta-galactosidase": {"biological_target": "Beta-galactosidase (Escherichia coli, UniProt Q8VNN2)", "sequence (Q8VNN2 whole entry)": "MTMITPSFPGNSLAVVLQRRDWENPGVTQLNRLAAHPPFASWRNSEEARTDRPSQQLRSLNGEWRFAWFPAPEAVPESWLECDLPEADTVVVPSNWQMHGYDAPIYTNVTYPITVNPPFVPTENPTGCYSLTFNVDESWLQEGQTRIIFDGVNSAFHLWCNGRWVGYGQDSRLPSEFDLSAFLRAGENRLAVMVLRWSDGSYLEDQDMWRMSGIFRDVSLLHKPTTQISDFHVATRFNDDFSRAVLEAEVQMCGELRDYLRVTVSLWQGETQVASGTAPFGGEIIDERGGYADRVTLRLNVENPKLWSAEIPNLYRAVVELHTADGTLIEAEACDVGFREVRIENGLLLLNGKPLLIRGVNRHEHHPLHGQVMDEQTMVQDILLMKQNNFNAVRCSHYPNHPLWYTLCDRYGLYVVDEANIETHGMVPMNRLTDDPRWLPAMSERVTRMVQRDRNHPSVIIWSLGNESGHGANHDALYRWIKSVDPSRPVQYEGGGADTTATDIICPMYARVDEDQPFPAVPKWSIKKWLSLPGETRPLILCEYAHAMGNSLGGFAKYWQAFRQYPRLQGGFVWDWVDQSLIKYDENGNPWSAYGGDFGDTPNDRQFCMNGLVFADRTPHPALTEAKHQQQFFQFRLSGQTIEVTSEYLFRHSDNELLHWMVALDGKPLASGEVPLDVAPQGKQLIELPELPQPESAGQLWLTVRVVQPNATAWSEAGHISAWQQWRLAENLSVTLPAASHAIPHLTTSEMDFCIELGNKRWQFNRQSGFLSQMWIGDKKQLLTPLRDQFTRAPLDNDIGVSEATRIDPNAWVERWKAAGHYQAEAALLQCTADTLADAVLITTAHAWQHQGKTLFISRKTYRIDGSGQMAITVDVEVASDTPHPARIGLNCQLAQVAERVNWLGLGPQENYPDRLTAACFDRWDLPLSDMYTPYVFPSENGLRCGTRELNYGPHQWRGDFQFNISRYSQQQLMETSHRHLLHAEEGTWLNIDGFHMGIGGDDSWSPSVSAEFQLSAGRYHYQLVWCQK", "experiment": "beta-galactosidase enzyme inhibitors and activators, dose response, artefact control for CCR6 antagonist project, biochemical, E. coli enzyme, set 3 (AID 504712)", "format": "functional"}, "[3]": {"biological_target": "T1, Replicative DNA helicase DnaB (Mycobacterium tuberculosis, UniProt P9WMR3)", "T1 sequence (P9WMR3 whole entry)": "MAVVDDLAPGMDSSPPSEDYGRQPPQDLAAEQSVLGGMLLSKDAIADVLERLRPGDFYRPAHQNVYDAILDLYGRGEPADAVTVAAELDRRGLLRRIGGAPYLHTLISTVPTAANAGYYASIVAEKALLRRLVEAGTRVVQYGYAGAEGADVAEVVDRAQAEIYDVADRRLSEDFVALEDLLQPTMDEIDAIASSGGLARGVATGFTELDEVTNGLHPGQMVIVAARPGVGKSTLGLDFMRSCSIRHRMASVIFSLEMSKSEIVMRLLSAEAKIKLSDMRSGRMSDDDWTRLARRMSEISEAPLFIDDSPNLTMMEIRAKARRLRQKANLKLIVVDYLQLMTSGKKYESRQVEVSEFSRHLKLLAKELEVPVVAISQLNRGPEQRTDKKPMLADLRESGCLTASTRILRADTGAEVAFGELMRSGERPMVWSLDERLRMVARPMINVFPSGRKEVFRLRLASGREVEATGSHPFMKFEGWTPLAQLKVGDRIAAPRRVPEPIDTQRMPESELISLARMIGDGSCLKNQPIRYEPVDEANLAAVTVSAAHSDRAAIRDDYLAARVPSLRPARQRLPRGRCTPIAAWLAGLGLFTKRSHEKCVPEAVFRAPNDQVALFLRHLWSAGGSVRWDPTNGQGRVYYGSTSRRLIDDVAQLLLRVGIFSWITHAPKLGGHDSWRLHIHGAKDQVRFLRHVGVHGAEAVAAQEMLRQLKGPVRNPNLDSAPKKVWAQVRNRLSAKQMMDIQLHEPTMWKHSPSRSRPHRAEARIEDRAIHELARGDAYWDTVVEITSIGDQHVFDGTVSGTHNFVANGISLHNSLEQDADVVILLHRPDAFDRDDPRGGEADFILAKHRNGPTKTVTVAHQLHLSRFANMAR", "experiment": "DnaB intein splicing inhibitors, dose response, biochemical, cell-free fluorescence (AID 449749)", "format": "functional"}, "Protein RecA": {"biological_target": "T2, Protein RecA (Mycobacterium tuberculosis, UniProt P9WHJ3)", "T2 sequence (P9WHJ3 whole entry)": "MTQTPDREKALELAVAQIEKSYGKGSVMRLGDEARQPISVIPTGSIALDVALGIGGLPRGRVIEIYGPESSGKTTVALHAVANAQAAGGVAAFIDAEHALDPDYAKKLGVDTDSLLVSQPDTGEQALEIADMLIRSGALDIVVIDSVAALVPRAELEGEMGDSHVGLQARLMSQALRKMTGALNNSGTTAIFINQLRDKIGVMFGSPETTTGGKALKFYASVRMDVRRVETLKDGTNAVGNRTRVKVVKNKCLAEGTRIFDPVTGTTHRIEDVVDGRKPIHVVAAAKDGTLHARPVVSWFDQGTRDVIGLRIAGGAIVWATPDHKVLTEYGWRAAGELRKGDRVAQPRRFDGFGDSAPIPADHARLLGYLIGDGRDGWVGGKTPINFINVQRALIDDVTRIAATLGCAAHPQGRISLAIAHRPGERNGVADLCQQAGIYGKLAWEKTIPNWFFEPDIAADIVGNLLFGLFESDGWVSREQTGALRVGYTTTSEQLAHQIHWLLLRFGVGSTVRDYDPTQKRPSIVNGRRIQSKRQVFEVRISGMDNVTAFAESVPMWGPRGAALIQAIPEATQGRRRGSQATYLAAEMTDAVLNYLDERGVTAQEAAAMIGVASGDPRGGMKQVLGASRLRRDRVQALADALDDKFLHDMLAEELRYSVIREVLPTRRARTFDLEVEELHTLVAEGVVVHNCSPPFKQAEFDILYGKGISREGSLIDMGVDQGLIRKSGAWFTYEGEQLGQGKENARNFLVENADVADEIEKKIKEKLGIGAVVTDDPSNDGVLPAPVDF", "experiment": "Fluorescence Cell-Free Homogeneous Dose Retest to Identify Inhibitors of RecA-Intein Splicing Activity. [Related pubchem assays (depositor defined):AID2097, AID2223, AID489010, AID492950]", "format": "functional"}, "Apelin receptor": {"biological_target": "Apelin receptor (Homo sapiens, UniProt P35414)", "sequence (P35414 whole entry, the tested form may be a part)": "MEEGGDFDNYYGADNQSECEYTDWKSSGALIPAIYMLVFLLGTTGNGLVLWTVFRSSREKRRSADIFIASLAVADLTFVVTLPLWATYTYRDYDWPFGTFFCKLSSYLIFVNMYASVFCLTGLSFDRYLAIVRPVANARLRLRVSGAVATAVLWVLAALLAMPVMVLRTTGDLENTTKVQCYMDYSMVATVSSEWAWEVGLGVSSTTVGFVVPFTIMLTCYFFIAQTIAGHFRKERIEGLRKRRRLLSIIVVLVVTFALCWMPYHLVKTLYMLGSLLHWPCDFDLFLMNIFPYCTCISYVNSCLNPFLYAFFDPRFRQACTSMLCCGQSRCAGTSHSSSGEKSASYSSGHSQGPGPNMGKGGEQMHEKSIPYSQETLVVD", "experiment": "APJ beta-arrestin recruitment antagonism, SAR follow-up, selectivity assay for CCR6 antagonist project, cell-based, luminescent, enzyme-fragment complementation (AID 588359)", "format": "functional"}, "Streptococcus": {"tested_on": "Streptococcus", "experiment": "Group A Streptococcus viability loss, dose response, counter-screen for streptokinase expression inhibitor project, luminescence, BacTiterGlo (AID 1915);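 also: potency for reduction of bacterial viability or growth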", "format": "functional, organism-based"}, "[4]": {"biological_target": "T3, Short transient receptor potential channel 4 (Mus musculus, UniProt Q9QUQ5)", "T3 sequence (Q9QUQ5 whole entry)": "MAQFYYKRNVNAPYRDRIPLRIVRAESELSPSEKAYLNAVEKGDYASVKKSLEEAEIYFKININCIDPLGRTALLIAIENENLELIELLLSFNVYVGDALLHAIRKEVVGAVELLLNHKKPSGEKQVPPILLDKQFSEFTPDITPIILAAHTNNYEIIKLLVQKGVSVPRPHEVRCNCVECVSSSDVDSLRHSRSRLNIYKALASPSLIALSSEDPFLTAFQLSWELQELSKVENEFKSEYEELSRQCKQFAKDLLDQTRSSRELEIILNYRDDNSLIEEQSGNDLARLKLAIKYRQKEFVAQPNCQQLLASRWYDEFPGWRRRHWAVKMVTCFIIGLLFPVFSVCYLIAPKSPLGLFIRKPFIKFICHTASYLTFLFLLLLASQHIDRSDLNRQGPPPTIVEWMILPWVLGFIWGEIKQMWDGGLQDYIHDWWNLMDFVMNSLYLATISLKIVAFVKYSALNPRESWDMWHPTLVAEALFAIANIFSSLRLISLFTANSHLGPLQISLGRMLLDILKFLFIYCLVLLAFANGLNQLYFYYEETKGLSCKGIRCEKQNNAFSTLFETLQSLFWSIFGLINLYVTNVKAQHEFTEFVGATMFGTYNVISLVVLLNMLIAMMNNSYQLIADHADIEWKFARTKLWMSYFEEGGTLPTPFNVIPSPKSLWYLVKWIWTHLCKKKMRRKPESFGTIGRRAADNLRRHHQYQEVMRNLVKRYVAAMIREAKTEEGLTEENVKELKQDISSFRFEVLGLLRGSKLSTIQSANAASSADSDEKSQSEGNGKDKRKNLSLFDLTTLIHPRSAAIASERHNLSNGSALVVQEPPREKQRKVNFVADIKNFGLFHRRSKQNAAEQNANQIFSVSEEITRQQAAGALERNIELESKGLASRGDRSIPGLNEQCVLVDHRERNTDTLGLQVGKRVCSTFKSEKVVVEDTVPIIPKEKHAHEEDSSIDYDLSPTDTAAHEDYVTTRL", "experiment": "mouse TRPC4 channel activators, dose response, cell-based, HEK293 TRPC4/mu-opioid, Fluo-4 calcium (AID 434937)", "format": "functional"}, "[5]": {"tested_on": "Streptococcus sp. 'group A'", "experiment": "growth inhibition of control SK(-) GAS strain, dose response, counter-screen for streptokinase expression inhibitor project, luminescence, kanamycin, BacTiterGlo, confirmation (AID 1900)", "format": "functional, organism-based"}, "HEK293 [6]": {"tested_on": "HEK293", "experiment": "cells", "details": "Homo sapiens"}, "[7]": {"biological_target": "Induced myeloid leukemia cell differentiation protein Mcl-1 (Homo sapiens, UniProt Q07820)", "sequence (Q07820 whole entry)": "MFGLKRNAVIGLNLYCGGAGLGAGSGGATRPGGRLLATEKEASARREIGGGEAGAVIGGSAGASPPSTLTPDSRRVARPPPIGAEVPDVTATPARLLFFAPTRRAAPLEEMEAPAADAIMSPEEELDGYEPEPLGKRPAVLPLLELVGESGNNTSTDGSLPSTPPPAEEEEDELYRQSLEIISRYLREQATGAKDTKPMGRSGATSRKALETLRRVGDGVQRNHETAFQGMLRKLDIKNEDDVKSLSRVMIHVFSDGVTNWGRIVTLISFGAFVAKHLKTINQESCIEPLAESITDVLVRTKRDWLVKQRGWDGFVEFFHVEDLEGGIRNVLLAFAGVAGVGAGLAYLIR", "format": "functional"}, "HEK293 [8]": {"tested_on": "HEK293", "experiment": "cells", "details": "Homo sapiens", "remark": "listed apart in the source"}, "Paired box protein Pax-8": {"biological_target": "Paired box protein Pax-8 (Homo sapiens, UniProt Q06710)", "sequence (Q06710 whole entry)": "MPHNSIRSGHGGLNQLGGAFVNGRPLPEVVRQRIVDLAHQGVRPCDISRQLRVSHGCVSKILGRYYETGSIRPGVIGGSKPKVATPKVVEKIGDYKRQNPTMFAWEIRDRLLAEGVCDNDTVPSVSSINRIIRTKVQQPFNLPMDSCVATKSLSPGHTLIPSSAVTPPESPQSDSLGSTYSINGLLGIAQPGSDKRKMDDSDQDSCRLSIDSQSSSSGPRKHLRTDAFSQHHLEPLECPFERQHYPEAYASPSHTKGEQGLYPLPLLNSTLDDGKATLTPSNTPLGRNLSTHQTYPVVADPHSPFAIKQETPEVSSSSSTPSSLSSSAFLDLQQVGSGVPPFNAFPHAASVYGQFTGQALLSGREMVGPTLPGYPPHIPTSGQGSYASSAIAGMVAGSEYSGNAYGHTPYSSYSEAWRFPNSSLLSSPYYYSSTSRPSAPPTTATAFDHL", "experiment": "inhibitors of PAX8-driven TPO luciferase reporter, dose response, RMG-I cells, cherry-pick (AID 687027);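 also: luciferase reporter driven by Pax8 target thyroperoxidase promoter measured by SteadyGlo luminescence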", "format": "functional, cell-based"}, "[9]": {"experiment": "Luminescence Cell-Based Dose Retest to Confirm Inhibitors of Cancer Stem Cells. [Related pubchem assays (depositor defined):AID2717, AID2721]", "format": "functional", "details": "Homo sapiens"}},
  "note": "The source made the active and inactive calls.",
  "data": [
    {"smiles": "Cc1nn(C)c(C)c1CNC(=O)c1cc2n(n1)C(C(F)(F)F)CC(c1cccs1)N2", "note": "(stereo not drawn)", "values": [
      {"measurement": "IC50", "setting": "[1]", "result": "1.11 µM (active)"},
      {"measurement": "IC50", "setting": "[2]", "result": "1.94 µM (active)"}
    ]},
    {"smiles": "COC(=O)C1=NN(C(=O)c2cccc(Br)c2)C(O)(c2ccc(Cl)cc2)C1", "note": "(stereo not drawn)", "values": [
      {"measurement": "IC50", "setting": "Beta-galactosidase", "result": "> 66.6 µM (inactive)"},
      {"measurement": "AC50", "setting": "[3]", "result": "> 380 µM (inactive)"},
      {"measurement": "EC50", "setting": "Protein RecA", "result": "13.7 µM (active)"},
      {"measurement": "IC50", "setting": "Apelin receptor", "result": "12.1 µM (active)"},
      {"measurement": "EC50", "setting": "Streptococcus", "result": "3.87 µM (active)"},
      {"measurement": "EC50", "setting": "[4]", "result": "5.31 µM (active)"},
      {"measurement": "EC50", "setting": "[5]", "result": "2.9 µM (active)"}
    ]},
    {"smiles": "CCN(CC)S(=O)(=O)c1cc(NC(=O)Cn2ncc(Cl)c(Cl)c2=O)ccc1C", "values": [
      {"measurement": "EC50", "setting": "HEK293 [6]", "result": "> 59.6 µM (inactive)"},
      {"measurement": "AC50", "setting": "[3]", "result": "11.8 µM (active)"},
      {"measurement": "EC50", "setting": "Protein RecA", "result": "14.5 µM (active)"},
      {"measurement": "IC50", "setting": "[7]", "result": "4.21 µM (active)"},
      {"measurement": "EC50", "setting": "HEK293 [8]", "result": "> 59.6 µM (inactive)"},
      {"measurement": "AC50", "setting": "Paired box protein Pax-8", "result": "4.84 µM (active)"}
    ]},
    {"smiles": "Cc1sc2nc(SCCN(C)C)n(-c3ccccc3)c(=O)c2c1-c1ccc(F)cc1", "values": [
      {"measurement": "AC50", "setting": "[9]", "result": "7.17 µM (active)"},
      {"measurement": "IC50", "setting": "Beta-galactosidase", "result": "> 66.6 µM (inactive)"},
      {"measurement": "IC50", "setting": "Apelin receptor", "result": "30.9 µM (inactive)"}
    ]}
  ]
}
